According to publication PMC12655758, “Identification of KKL-35 as a Novel Carnosine Dipeptidase 2 (CNDP2) Inhibitor by In Silico Screening” (Molecules, 2025):
Like-named read-outs stand apart in the source and are kept apart here.

Key:
Type in all cases: biochemical
[1] = biological target: T1, Carnosine dipeptidase 2 (CNDP2) (Mus musculus, UniProt Q9D1A2); assay: LC-MS assay of Cys-Gly hydrolysis by purified CNDP2 (Cys-NEM readout; IC50 […] by Gly)
T1 sequence (Q9D1A2 1-475): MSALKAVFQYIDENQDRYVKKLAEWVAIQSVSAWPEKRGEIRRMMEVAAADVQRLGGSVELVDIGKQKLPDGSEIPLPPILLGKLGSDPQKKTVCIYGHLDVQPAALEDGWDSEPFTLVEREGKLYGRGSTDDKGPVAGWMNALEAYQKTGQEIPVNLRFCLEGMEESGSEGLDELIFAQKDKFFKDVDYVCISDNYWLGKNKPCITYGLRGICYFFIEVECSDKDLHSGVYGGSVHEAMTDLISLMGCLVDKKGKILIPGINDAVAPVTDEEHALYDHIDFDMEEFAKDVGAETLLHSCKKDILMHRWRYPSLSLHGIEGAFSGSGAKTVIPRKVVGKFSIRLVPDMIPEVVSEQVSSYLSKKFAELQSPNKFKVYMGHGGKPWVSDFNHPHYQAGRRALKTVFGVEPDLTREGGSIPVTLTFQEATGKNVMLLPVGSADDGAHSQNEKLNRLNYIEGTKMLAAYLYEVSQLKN

[2] = biological target: T1, Carnosine dipeptidase 2 (CNDP2); assay: LC-MS detection of Cys-NEM and Gly products from Cys-Gly ([…]) hydrolysed by purified CNDP2
[3] = biological target: T1, Carnosine dipeptidase 2 (CNDP2); assay: LC-MS assay of Cys-Gly hydrolysis by purified CNDP2 (Cys-NEM readout; IC50 […] by Gly); remark: listed apart in the source

Compound: CC(C)C[C@H](NC(=O)[C@@H](O)[C@H](N)Cc1ccccc1)C(=O)O [Bestatin]
- IC50 [1]: 1000 nM

Compound: N[C@@H](CS)C(=O)NCC(=O)O [Cys-Gly]
- LC-MS detection of Cys-NEM and Gly products from Cys-Gly (5 mM) hydrolysed by pu [2]: Cys-Gly was hydrolyzed by CNDP2 to produce cysteine (Cys) and glycine (Gly).

Compound: O=C(Nc1nnc(-c2ccc(F)cc2)o1)c1ccc(Cl)cc1 [KKL-35]
- IC50 [3]: 118 µM
